Data published in PubChem BioAssay (NCI).
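Step 1: Grow cells in 96-well plates. Step 2: Expose to compound for 48 hours at 5 concentrations. Step 3: Interpolate endpoints linearly; if unreached, use highest concentration. Abbreviation: GI50, concentration required for 50% inhibition of growth. TGI: concentration producing complete growth inhibition.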

Legend:
Assay in all cases: NCI anticancer screen, dose series, 48 h
[1] = tested on: SNB-75 CNS
[2] = tested on: TK-10 renal
[3] = tested on: BT-549 breast
[4] = tested on: A498 renal
[5] = tested on: 786-0 renal
[6] = tested on: SF-539 CNS
[7] = tested on: ACHN renal
[8] = tested on: SK-MEL-5 melanoma
[9] = tested on: NCI-H522 lung
[10] = tested on: OVCAR-4 ovarian
[11] = tested on: HCT-15 colon
[12] = tested on: DU-145 prostate
[13] = tested on: SK-MEL-28 melanoma
[14] = tested on: SF-268 CNS
[15] = tested on: MCF7 breast
[16] = tested on: EKVX NSCLC
[17] = tested on: OVCAR-8 ovarian
[18] = tested on: T-47D breast
[19] = tested on: NCI-H226 lung
[20] = tested on: SK-MEL-2 melanoma
[21] = tested on: HL-60(TB) leukemia
[22] = tested on: NCI-H460 lung
[23] = tested on: SK-OV-3 ovarian
[24] = tested on: A549 NSCLC
[25] = tested on: LOX IMVI melanoma
[26] = tested on: UO-31 renal
[27] = tested on: SR leukemia
[28] = tested on: MALME-3M melanoma
[29] = tested on: PC-3 prostate
[30] = tested on: SF-295 CNS
[31] = tested on: MOLT-4 leukemia
[32] = tested on: HT29 colon
[33] = tested on: M14 melanoma
[34] = tested on: HOP-92 NSCLC
[35] = tested on: OVCAR-5 ovarian
[36] = tested on: HOP-62 NSCLC
[37] = tested on: RPMI-8226 leukemia
[38] = tested on: U251 CNS
[39] = tested on: NCI/ADR-RES ovarian
[40] = tested on: UACC-257 melanoma
[41] = tested on: MDA-MB-231 breast
[42] = tested on: SNB-19 CNS
[43] = tested on: CAKI-1 renal
[44] = tested on: HCT-116 colon
[45] = tested on: HCC-2998 colon
[46] = tested on: HS 578T breast
[47] = tested on: SN12C renal
[48] = tested on: OVCAR-3 ovarian
[49] = tested on: RXF 393 renal
[50] = tested on: K-562 leukemia
[51] = tested on: COLO 205 colon
[52] = tested on: KM12 colon
[53] = tested on: SW-620 colon
[54] = tested on: MDA-MB-435
[55] = tested on: CCRF-CEM leukemia
[56] = tested on: NCI-H23 lung

Work on `CC[C@H](Nc1cc(C)nc(N)n1)c1nc2cccc(NCc3ccc(C(=O)NO)cc3)c2c(=O)n1-c1ccccc1` yielded a GI50 [1] of 1.12 µM, a TGI [1] of 3.5 µM and a GI50 [2] of 4.28 µM. It also gave a TGI [2] of 16.9 µM, a GI50 [3] of 2.44 µM and a TGI [3] of 6.57 µM. It also gave a GI50 [4] of 1.51 µM, a TGI [4] of 3.33 µM and a GI50 [5] of 1.85 µM. For the same compound, the TGI [5] was 3.79 µM, the GI50 [6] was 1.67 µM and the TGI [6] was 3.26 µM. For the same compound, the GI50 [7] was 10.5 µM, the TGI [7] was 22.7 µM and the GI50 [8] was 1.96 µM. It also gave a TGI [8] of 4.41 µM, a GI50 [9] of 1.06 µM and a TGI [9] of 3.19 µM. It also gave a GI50 [10] of 1.61 µM, a TGI [10] of 4.12 µM and a GI50 [11] of 10.4 µM. It also gave a TGI [11] of 25.1 µM, a GI50 [12] of 2.99 µM and a TGI [12] of 10.6 µM. The GI50 [13] was 1.83 µM, the TGI [13] was 3.9 µM and the GI50 [14] was 1.82 µM. For the same compound, the TGI [14] was 3.49 µM, the GI50 [15] was 1.98 µM and the TGI [15] was 6.39 µM. For the same compound, the GI50 [16] was 3.32 µM, the TGI [16] was 12.2 µM and the GI50 [17] was 2.04 µM. For the same compound, the TGI [17] was 6.13 µM, the GI50 [18] was 1.54 µM and the TGI [18] was 6.13 µM. For the same compound, the GI50 [19] was 2.86 µM, the TGI [19] was 14.9 µM and the GI50 [20] was 2.58 µM. For the same compound, the TGI [20] was 7.37 µM, the GI50 [21] was 2.59 µM and the TGI [21] was 6.1 µM. The GI50 [22] was 1.94 µM, the TGI [22] was 5.68 µM and the GI50 [23] was 2.52 µM. The TGI [23] was 8.88 µM, the GI50 [24] was 3.79 µM and the TGI [24] was 16.4 µM. The GI50 [25] was 1.78 µM, the TGI [25] was 3.29 µM and the GI50 [26] was 10.2 µM. For the same compound, the TGI [26] was 24.2 µM, the GI50 [27] was 0.679 µM and the TGI [27] was 13 µM. It also gave a GI50 [28] of 1.39 µM, a TGI [28] of 2.93 µM and a GI50 [29] of 1.83 µM. For the same compound, the TGI [29] was 4.41 µM, the GI50 [30] was 1.66 µM and the TGI [30] was 3.48 µM. For the same compound, the GI50 [31] was 2.52 µM, the TGI [31] was 10.2 µM and the GI50 [32] was 2.69 µM. For the same compound, the TGI [32] was 10.4 µM, the GI50 [33] was 1.85 µM and the TGI [33] was 3.88 µM. For the same compound, the GI50 [34] was 1.33 µM, the TGI [34] was 3.54 µM and the GI50 [35] was 2.4 µM. The TGI [35] was 7.59 µM, the GI50 [36] was 2.05 µM and the TGI [36] was 4.47 µM. The GI50 [37] was 2.08 µM, the TGI [37] was 7.4 µM and the GI50 [38] was 1.47 µM. The TGI [38] was 3.03 µM, the GI50 [39] was 77.2 µM and the TGI [39] was > 100 µM. The GI50 [40] was 2.17 µM, the TGI [40] was 7.41 µM and the GI50 [41] was 1.62 µM. It also gave a TGI [41] of 3.16 µM, a GI50 [42] of 1.83 µM and a TGI [42] of 4.77 µM. The GI50 [43] was 3.33 µM, the TGI [43] was 14.2 µM and the GI50 [44] was 1.55 µM. The TGI [44] was 3.72 µM, the GI50 [45] was 1.82 µM and the TGI [45] was 3.34 µM. It also gave a GI50 [46] of 2.36 µM, a TGI [46] of 9.97 µM and a GI50 [47] of 1.96 µM. For the same compound, the TGI [47] was 4.72 µM, the GI50 [48] was 1.86 µM and the TGI [48] was 4.39 µM. It also gave a GI50 [49] of 1.48 µM, a TGI [49] of 2.9 µM and a GI50 [50] of 2.56 µM. For the same compound, the TGI [50] was 10 µM, the GI50 [51] was 1.56 µM and the TGI [51] was 3.79 µM. For the same compound, the GI50 [52] was 1.69 µM, the TGI [52] was 3.31 µM and the GI50 [53] was 1.61 µM. The TGI [53] was 4.19 µM, the GI50 [54] was 1.64 µM and the TGI [54] was 3.12 µM. The GI50 [55] was 1.62 µM, the TGI [55] was 11.4 µM and the GI50 [56] was 2.01 µM. The TGI [56] was 4.72 µM.
